Reference: patent US9833497B2, “Human originated EGF domain proteins and use of the same” (CHENGDU SOURCEBIO LIMITED-LIABILITY COMPANY, priority 2013, dated 2017)

Legend:
Type in all cases: cell-based
[1] = tested on: Aeromonas hydrophila; assay: MIC against Gram-negative bacteria: Aeromonas hydrophila
In short: (§1)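 Bacteria grown in LB at 37° C to McFarland 0.5, resuspended and seeded at 5×10^5 CFU/mL in 96-well plates. Purified human EGF-domain proteins two-fold serially diluted, triplicate wells; cultured at 37° C, shaking 175 rpm. MIC = lowest protein concentration with no growth.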

[2] = tested on: Moraxella catarrhalis; assay: MIC against Gram-negative bacteria: Moraxella catarrhalis
In short: as §1

[3] = tested on: Klebsiella pneumonia; assay: MIC against Gram-negative bacteria: Klebsiella pneumonia
In short: as §1

[4] = tested on: Enterobacter cloacae; assay: MIC against Gram-negative bacteria: Enterobacter cloacae
In short: as §1

[5] = tested on: Serratia marcescens; assay: MIC against Gram-negative bacteria: Serratia marcescens
In short: as §1

[6] = tested on: E. coli DH5α; assay: Antibacterial activity: MIC and growth curve against E. coli DH5α in 96-well plate; conditions: minimal inhibitory concentration against E. coli DH5α; 96-well plate, 5×10^5 CFU/mL, 37° C., judged after 8 h
In short: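 Log-phase bacteria (OD600 ~0.5) resuspended in LB at 5×10^5 CFU/mL, exposed to recombinant protein at 50, 25, 12.5 μg/mL final in triplicate, 37 °C shaking at 175 rpm. OD600 read every 30 min; MIC is lowest concentration showing no growth.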

[7] = tested on: Proteus vulgaris; assay: MIC against Gram-negative bacteria: Proteus vulgaris
In short: as §1

[8] = tested on: E. coli BL21; assay: MIC against Gram-negative bacteria: E. coli BL21
In short: as §1

[9] = tested on: Citrobacter diversus; assay: MIC against Gram-negative bacteria: Citrobacter diversus
In short: as §1

[10] = tested on: Pseudomonas aeruginosa; assay: MIC against Gram-negative bacteria: Pseudomonas aeruginosa
In short: as §1

[11] = tested on: Proteus mirabilis; assay: MIC against Gram-negative bacteria: Proteus mirabilis
In short: as §1

[12] = Aeromonas hydrophila, 96-well plate, 5×10^5 CFU/mL, 37° C., 10 h
[13] = Moraxella catarrhalis, 96-well plate, 5×10^5 CFU/mL, 37° C., 10 h
[14] = Klebsiella pneumonia, 96-well plate, 5×10^5 CFU/mL, 37° C., 10 h
[15] = Enterobacter cloacae, 96-well plate, 5×10^5 CFU/mL, 37° C., 10 h
[16] = Serratia marcescens, 96-well plate, 5×10^5 CFU/mL, 37° C., 10 h
[17] = Proteus vulgaris, 96-well plate, 5×10^5 CFU/mL, 37° C., 10 h
[18] = E. coli BL21, 96-well plate, 5×10^5 CFU/mL, 37° C., 10 h
[19] = Citrobacter diversus, 96-well plate, 5×10^5 CFU/mL, 37° C., 10 h
[20] = Pseudomonas aeruginosa, 96-well plate, 5×10^5 CFU/mL, 37° C., 10 h
[21] = Proteus mirabilis, 96-well plate, 5×10^5 CFU/mL, 37° C., 10 h
[22] = A. hydrophila, 10 h cultivation at 37° C., 5×10^5 CFU/mL
[23] = M. catarrhalis, 10 h cultivation at 37° C., 5×10^5 CFU/mL
[24] = K. pneumonia, 10 h cultivation at 37° C., 5×10^5 CFU/mL
[25] = E. cloacae, 10 h cultivation at 37° C., 5×10^5 CFU/mL
[26] = S. marcescens, 10 h cultivation at 37° C., 5×10^5 CFU/mL
[27] = P. vulgaris, 10 h cultivation at 37° C., 5×10^5 CFU/mL
[28] = E. coli BL21, 10 h cultivation at 37° C., 5×10^5 CFU/mL
[29] = C. diversus, 10 h cultivation at 37° C., 5×10^5 CFU/mL
[30] = P. aeruginosa, 10 h cultivation at 37° C., 5×10^5 CFU/mL
[31] = P. mirabilis, 10 h cultivation at 37° C., 5×10^5 CFU/mL
[32] = 96-well plate, 5×10^5 CFU/mL, 37° C., 10 h

In the case of “PRT1208 (VHHGCEDDPCPEGSECVSDPWEEKHTCVCPSGRFGQCP; listed as Homo sapiens)”, the “MIC against A. hydrophila” value [1, 12] was 50 µg/mL, the “MIC against M. catarrhalis” value [2, 13] was 12.5 µg/mL and the “MIC against K. pneumonia” value [3, 14] was 25 µg/mL. For the same substance, the “MIC against E. cloacae” value [4, 15] was 12.5 µg/mL, the “MIC against S. marcescens” value [5, 16] was 12.5 µg/mL and the MIC [6] was 12.5 µg/mL. For the same substance, the “MIC against P. vulgaris” value [7, 17] was 25 µg/mL, the “MIC against E. coli BL21” value [8, 18] was 25 µg/mL and the “MIC against C. diversus” value [9, 19] was 25 µg/mL. For the same substance, the “MIC against P. aeruginosa” value [10, 20] was 12.5 µg/mL and the “MIC against P. mirabilis” value [11, 21] was 50 µg/mL.

For “PRT244 (TCAMINCQYSCEDTEEGPQCLCPSSGLRLAPNGRDCL; listed as Homo sapiens)”, the “MIC (μg/mL) A. hydrophila” value [1, 22] was 25 µg/mL, the “MIC (μg/mL) M. catarrhalis” value [2, 23] was 25 µg/mL and the “MIC (μg/mL) K. pneumonia” value [3, 24] was 12.5 µg/mL. The “MIC (μg/mL) E. cloacae” value [4, 25] was 12.5 µg/mL, the “MIC (μg/mL) S. marcescens” value [5, 26] was 12.5 µg/mL and the MIC [6] was 50 µg/mL. The “MIC (μg/mL) P. vulgaris” value [7, 27] was 25 µg/mL, the “MIC (μg/mL) E. coli BL21” value [8, 28] was 12.5 µg/mL and the “MIC (μg/mL) C. diversus” value [9, 29] was 12.5 µg/mL. For the same substance, the “MIC (μg/mL) P. aeruginosa” value [10, 30] was 12.5 µg/mL and the “MIC (μg/mL) P. mirabilis” value [11, 31] was 12.5 µg/mL.

Work on “PRT1026 (NKETCEHNHRQCSRHAFCTDYATGFCCHCQSKFYGNGKHCL; listed as Homo sapiens)” yielded an MIC ([1]; A. hydrophila, 10 h cultivation at 37° C.) of 50 µg/mL, an MIC ([2]; M. catarrhalis, 10 h cultivation at 37° C.) of 50 µg/mL and an MIC ([3]; K. pneumonia, 10 h cultivation at 37° C.) of 25 µg/mL. For the same substance, the MIC ([4]; E. cloacae, 10 h cultivation at 37° C.) was 12.5 µg/mL, the MIC ([5]; S. marcescens, 10 h cultivation at 37° C.) was 50 µg/mL and the MIC [6] was 12.5 µg/mL. It also gave an MIC ([7]; P. vulgaris, 10 h cultivation at 37° C.) of 25 µg/mL, an MIC ([8]; E. coli BL21, 10 h cultivation at 37° C.) of 25 µg/mL and an MIC ([9]; C. diversus, 10 h cultivation at 37° C.) of 12.5 µg/mL. For the same substance, the MIC ([10]; P. aeruginosa, 10 h cultivation at 37° C.) was 50 µg/mL and the MIC ([11]; P. mirabilis, 10 h cultivation at 37° C.) was 12.5 µg/mL.

For “PRT175 (CEHAPCHNGATCHERGHRYVCECARGYGGPNC; listed as Homo sapiens)”, the “MIC (μg/mL) A. hydrophila” value [1, 22] was 25 µg/mL, the “MIC (μg/mL) M. catarrhalis” value [2, 23] was 25 µg/mL and the “MIC (μg/mL) K. pneumonia” value [3, 24] was 12.5 µg/mL. For the same substance, the “MIC (μg/mL) E. cloacae” value [4, 25] was 12.5 µg/mL, the “MIC (μg/mL) S. marcescens” value [5, 26] was 12.5 µg/mL and the MIC [6] was 12.5 µg/mL. For the same substance, the “MIC (μg/mL) P. vulgaris” value [7, 27] was 25 µg/mL, the “MIC (μg/mL) E. coli BL21” value [8, 28] was 12.5 µg/mL and the “MIC (μg/mL) C. diversus” value [9, 29] was 12.5 µg/mL. For the same substance, the “MIC (μg/mL) P. aeruginosa” value [10, 30] was 12.5 µg/mL and the “MIC (μg/mL) P. mirabilis” value [11, 31] was 12.5 µg/mL.

With “PRT709 (SCQLCDGYCYNGGTCQLDPETNVPVCLCSTNWSGTQCE; listed as Homo sapiens)” the “MIC A. hydrophila” value [1, 32] was 50 µg/mL, the “MIC M. catarrhalis” value [2, 32] was 50 µg/mL and the “MIC K. pneumonia” value [3, 32] was 25 µg/mL. The “MIC E. cloacae” value [4, 32] was 12.5 µg/mL, the “MIC S. marcescens” value [5, 32] was 50 µg/mL and the MIC [6] was 50 µg/mL. The “MIC P. vulgaris” value [7, 32] was 12.5 µg/mL, the “MIC E. coli BL21” value [8, 32] was 12.5 µg/mL and the “MIC C. diversus” value [9, 32] was 12.5 µg/mL. The “MIC P. aeruginosa” value [10, 32] was 50 µg/mL and the “MIC P. mirabilis” value [11, 32] was 25 µg/mL.

“PRT44 (LYAQVSQSKPCERTGSCFSGRCVNSTCLCDPGWVGDQCQ; listed as Homo sapiens)” was tested, and the “MIC (μg/mL) A. hydrophila” value [1, 12] was 25 µg/mL, the “MIC (μg/mL) M. catarrhalis” value [2, 13] was 25 µg/mL and the “MIC (μg/mL) K. pneumonia” value [3, 14] was 12.5 µg/mL. The “MIC (μg/mL) E. cloacae” value [4, 15] was 12.5 µg/mL, the “MIC (μg/mL) S. marcescens” value [5, 16] was 12.5 µg/mL and the MIC [6] was 12.5 µg/mL. For the same substance, the “MIC (μg/mL) P. vulgaris” value [7, 17] was 25 µg/mL, the “MIC (μg/mL) E. coli BL21” value [8, 18] was 12.5 µg/mL and the “MIC (μg/mL) C. diversus” value [9, 19] was 12.5 µg/mL. The “MIC (μg/mL) P. aeruginosa” value [10, 20] was 25 µg/mL and the “MIC (μg/mL) P. mirabilis” value [11, 21] was 50 µg/mL.

With “PRT496 (CSCNNHSDTCDPNTGKCLNCGDNTAGDHCDVCTSGYYGKVTGSASDCAL; listed as Homo sapiens)” the “MIC against A. hydrophila” value [1, 32] was 12.5 µg/mL, the “MIC against M. catarrhalis” value [2, 32] was 12.5 µg/mL and the “MIC against K. pneumonia” value [3, 32] was 12.5 µg/mL. The “MIC against E. cloacae” value [4, 32] was 50 µg/mL, the “MIC against S. marcescens” value [5, 32] was 25 µg/mL and the MIC [6] was 12.5 µg/mL. For the same substance, the “MIC against P. vulgaris” value [7, 32] was 50 µg/mL, the “MIC against E. coli BL21” value [8, 32] was 12.5 µg/mL and the “MIC against C. diversus” value [9, 32] was 50 µg/mL. For the same substance, the “MIC against P. aeruginosa” value [10, 32] was 50 µg/mL and the “MIC against P. mirabilis” value [11, 32] was 25 µg/mL.
